| Structure (SMILES) | melting point [°C] |
| --- | --- |
| CCCC(=O)Nc1n[nH]c2c(F)c(F)c(Br)cc12 | 220 |
| CN1CCN(CC(=O)Nc2n[nH]c3cc(Cl)ccc23)CC1 | 165 |
| CCCC(=O)Nc1n[nH]c2ccc(C(F)(F)F)cc12 [Example 22, N-[5-(trifluoromethyl)-1H-indazol-3-yl]butanamide] | 230 |
| O=C(Nc1n[nH]c2ccc(NS(=O)(=O)c3cccc(F)c3)cc12)c1ccccc1 [Example 38, N-[5-[[(3-fluorophenyl)sulphonyl]amino]-1H-indazol-3-yl]benzamide] | 225 |
| CCCC(=O)Nc1n[nH]c2cc(Br)c(Br)cc12 [Example 70, N-[5,6-dibromo-1H-indazol-3-yl]butanamide] | 250 |
| O=C(CN1CCCCC1)Nc1n[nH]c2cc(Cl)ccc12 [Example 76, N-(6-chloro-1H-indazol-3-yl)-1-piperidineacetamide] | 153 |
| O=C(CNC1CCCCC1)Nc1n[nH]c2cc(Cl)ccc12 [Example 79, N-(6-chloro-1H-indazol-3-yl)-2-(cyclohexylamino)acetamide] | 170 |
| O=C(CNCc1ccccc1)Nc1n[nH]c2cc(Cl)ccc12 [Example 80, 2-[(phenylmethyl)amino]-N-(6-chloro-1H-indazol-3-yl)acetamide] | 156 |
| O=C(CN1CCCC1)Nc1n[nH]c2cc(Cl)ccc12 [Example 85, N-(6-chloro-1H-indazol-3-yl)-1-pyrrolidineacetamide] | 168 |
| CN(C)CCNCC(=O)Nc1n[nH]c2cc(Cl)ccc12 [Example 86, N-(6-chloro-1H-indazol-3-yl)-2-[[2-(dimethylamino)ethyl]amino]acetamide] | 104 |
| CCCC(=O)Nc1n[nH]c2c(F)c(F)c([N+](=O)[O-])cc12 [Example 106, N-(6,7-difluoro-5-nitro-1H-indazol-3-yl)butanamide] | 255 |
| CCCC(=O)Nc1n[nH]c2c(F)c(N3CCOCC3)c([N+](=O)[O-])cc12 [Example 112, N-(7-fluoro-5-nitro-6-morpholino-1H-indazol-3-yl)butanamide] | 250 |
| CCCC(=O)Nc1n[nH]c2c(F)c(N3CCOCC3)c(N)cc12 [Example 113, N-(7-fluoro-5-amino-6-morpholino-1H-indazol-3-yl)butanamide] | 180 |
| O=C(CN1CCCCC1)Nc1n[nH]c2c(F)c(F)ccc12 [Example 118, N-(6,7-difluoro-1H-indazol-3-yl)-1-piperidineacetamide] | 158 |
